{
  "source": "ChEMBL document CHEMBL3832036",
  "about": "“Goodman and Gilman Ed. 12 | The Pharmaceutical Basis of Therapeutics| Table AII-I: Pharmacokinetic Data” (2011)",
  "key": {"[1]": {"tested_on": "Homo sapiens", "assay": "Pharmacokinetic parameters for diffferent drugs or their active metabolite, following single oral or intravenous (IV) administration to subjects of different health conditions.", "format": "ADME, organism-based", "set-up": "dose 50 mg, dose 10 mg, route oral", "settings": "in vivo"}, "[2]": {"tested_on": "Homo sapiens", "assay": "Pharmacokinetic parameters for different drugs, or their active metabolite following multiple oral or intravenous administration to subjects of varying health conditions.", "format": "ADME, organism-based", "set-up": "dose 30 mg, dose 135 mg, route oral", "settings": "in vivo"}, "[3]": {"settings": "iv, dosed compound id 67, dosed compound name AZATHIOPRINE, regimen Single dose, tissue Plasma"}, "[4]": {"settings": "po, dose 10 mg, dosed compound id 63, dosed compound name BACLOFEN, gender male, regimen Single dose, tissue Plasma"}, "[5]": {"settings": "po, dosed compound id 63, dosed compound name BACLOFEN, gender male, regimen Single dose, tissue Plasma"}, "[6]": {"settings": "po, dosed compound id 66, dosed compound name CHLORTHALIDONE, regimen Single dose, tissue Plasma"}, "[7]": {"settings": "po, dosed compound id 69, dosed compound name IRBESARTAN, gender male, regimen Single dose, tissue Plasma"}},
  "data": [
    {"smiles": "Cn1cnc([N+](=O)[O-])c1Sc1ncnc2nc[nH]c12", "note": "[AZATHIOPRINE]", "values": [
      {"measurement": "CL", "setting": "[1]; [3]", "result": 57, "unit": "mL/min/kg"},
      {"measurement": "Vd", "setting": "[1]; [3]", "result": 0.81, "unit": "L/kg"},
      {"measurement": "t1/2", "setting": "[1]; [3]", "result": 0.16, "unit": "h"}
    ]},
    {"smiles": "NCC(CC(=O)O)c1ccc(Cl)cc1", "note": "(configuration not stated) [BACLOFEN]", "values": [
      {"measurement": "Vd", "setting": "[1]; other, dosed compound id 63, dosed compound name BACLOFEN, gender male, regimen Single dose, route intestinal infusion, tissue Plasma", "result": 0.81, "unit": "L/kg"},
      {"measurement": "CL", "setting": "[1]; other, dosed compound id 63, dosed compound name BACLOFEN, gender male, regimen Single dose, route intestinal infusion, tissue Urine", "result": 2.72, "unit": "mL/min/kg"},
      {"measurement": "Tmax", "setting": "[1]; [4]", "result": 1, "unit": "h"},
      {"measurement": "t1/2", "setting": "[1]; [4]", "result": 3.75, "unit": "h"},
      {"measurement": "Cmax", "setting": "[1]; [5]", "result": 160, "unit": "ng/mL"},
      {"measurement": "F", "setting": "[1]; [5]", "result": 70, "unit": "%"}
    ]},
    {"smiles": "NS(=O)(=O)c1cc(C2(O)NC(=O)c3ccccc32)ccc1Cl", "note": "(configuration not stated) [CHLORTHALIDONE]", "values": [
      {"measurement": "Excretion", "setting": "[1]; po, at 50 mg, dosed compound id 66, dosed compound name CHLORTHALIDONE, regimen Single dose, tissue Urine", "result": 65, "unit": "%"},
      {"measurement": "Tmax", "setting": "[1]; po, dose 50 mg, dosed compound id 66, dosed compound name CHLORTHALIDONE, regimen Single dose, tissue Plasma", "result": 13.8, "unit": "h"},
      {"measurement": "t1/2", "setting": "[1]; po, dosed compound id 66, dosed compound name CHLORTHALIDONE, regimen Single dose, tissue Blood", "result": 47, "unit": "h"},
      {"measurement": "CL", "setting": "[1]; [6]", "result": 0.04, "unit": "mL/min/kg"},
      {"measurement": "Cmax", "setting": "[1]; [6]", "result": 3700, "unit": "ng/mL"},
      {"measurement": "F", "setting": "[1]; [6]", "result": 64, "unit": "%"},
      {"measurement": "Vd", "setting": "[1]; [6]", "result": 0.14, "unit": "L/kg"}
    ]},
    {"smiles": "CCCCC1=NC2(CCCC2)C(=O)N1Cc1ccc(-c2ccccc2-c2nnn[nH]2)cc1", "note": "[IRBESARTAN]", "values": [
      {"measurement": "Tmax", "setting": "[1]; po, dose 50 mg, dosed compound id 69, dosed compound name IRBESARTAN, gender male, regimen Single dose, tissue Plasma", "result": 1.2, "unit": "h"},
      {"measurement": "CL", "setting": "[1]; [7]", "result": 2.12, "unit": "mL/min/kg"},
      {"measurement": "Cmax", "setting": "[1]; [7]", "result": 1300, "unit": "ng/mL"},
      {"measurement": "Vd", "setting": "[1]; [7]", "result": 2.9, "unit": "L/kg"},
      {"measurement": "bioavailability", "setting": "[1]; [7]", "result": "60 to 80", "unit": "%"},
      {"measurement": "t1/2", "setting": "[1]; [7]", "result": 13, "unit": "h"},
      {"measurement": "Excretion", "setting": "[1]; po, dosed compound id 69, dosed compound name IRBESARTAN, gender male, regimen Single dose, tissue Urine", "result": 2.2, "unit": "%"}
    ]},
    {"smiles": "Sc1ncnc2nc[nH]c12", "note": "[MERCAPTOPURINE ANHYDROUS]", "values": [
      {"measurement": "F", "setting": "[1]; po, dosed compound id 621, dosed compound name AZATHIOPRINE, regimen Single dose, tissue Plasma", "result": 60, "unit": "%"},
      {"measurement": "Tmax", "setting": "[2]; dose 135 mg, dosed compound id 621, dosed compound name AZATHIOPRINE, regimen Once daily, route oral, tissue Plasma", "result": "1 to 2", "unit": "h"},
      {"measurement": "Cmax", "setting": "[2]; dosed compound id 621, dosed compound name AZATHIOPRINE, regimen Once daily, tissue Plasma", "result": "20 to 90", "unit": "ng/mL"}
    ]},
    {"smiles": "C[C@]12C=CC(=O)C=C1CC[C@@H]1[C@@H]2[C@@H](O)C[C@@]2(C)[C@H]1CC[C@]2(O)C(=O)CO", "note": "[PREDNISOLONE]", "values": [
      {"measurement": "CL", "setting": "[1]; po", "result": 1, "unit": "mL/min/kg"},
      {"measurement": "Excretion", "setting": "[1]; po", "result": 26, "unit": "%"},
      {"measurement": "Vd", "setting": "[1]; po", "result": 0.42, "unit": "L/kg"},
      {"measurement": "t1/2", "setting": "[1]; po", "result": 2.2, "unit": "h"},
      {"measurement": "Cmax", "setting": "[2]", "result": 458, "unit": "ng/mL"},
      {"measurement": "Tmax", "setting": "[2]", "result": 1.5, "unit": "h"}
    ]}
  ]
}
